The text below walks through data of article PMC11859264, “Discovery of a Novel Multitarget Analgesic Through an In Vivo-Guided Approach” (Pharmaceuticals, 2025).

A short description of one data set: Cytotoxicity assay (MTT). The data set is classed as cell-based. The note with it: mouse, HT-22 hippocampal neuronal cells, HT-22 cells, read-out: cell viability relative to the untreated control group. As to the method:
In the in vitro toxicity study, we initially evaluated the cytotoxic potential of compound 29 using a hippocampal neuronal cell line (HT-22), a commonly used model for assessing neurotoxicity. Cell viability was determined after exposure to compound 29 at a concentration of 10 μM.
HT-22 (mouse hippocampal cells) were cultured in Dulbecco’s Modified Eagle’s Medium (DMEM, GIBCO) supplemented with 10% (v/v) fetal bovine serum and antibiotics (100 µg/mL penicillin/streptomycin mix) in a humidified atmosphere at 37 °C with 5% CO2. A total of 5000 HT-22 cells per well were seeded into a clear 96-well plate one day prior to the assay. On the day of the experiment, the medium was removed, and the cells were treated with 25 µL of each compound at a concentration of 10 µM. The plates were incubated at 37 °C for 18 h. Subsequently, 15 µL of 3-[4,5-dimethylthiazol-2-yl]-2,5-diphenyltetrazolium bromide (MTT) solution (5 mg/mL) was added to each well, and the plates were incubated for an additional 3 h. The resulting formazan crystals were dissolved in dimethyl sulfoxide (DMSO), and the absorbance at 570 nm was measured using a microplate reader (Sunrise, TECAN). Optical density (OD) values from each well were normalized by subtracting the vehicle control, and cell viability was calculated by considering the signal from the vehicle control as 100%.

The target in data set [1] is T1, Transporter, Serotonin (SERT) (Homo sapiens, UniProt P31645).
T1 construct: host or cells: HEK-293 cells
Nature of the data set: Radioligand binding, [3H] Paroxetine, Eurofins.

The next data set concerns the target T2, Dopamine D2L (Homo sapiens, UniProt P14416).
T2 construct: host or cells: CHO cells
As to the kind of experiment: Radioligand binding, [3H] Spiperone, Eurofins.

For the next data set, the target named is CYP3A4 (Homo sapiens, UniProt P08684). As to the kind of experiment: in vitro. As to conditions: microsomes, pH 7.4.
The target in a further data set is CYP2C19 (Homo sapiens, UniProt P33261). As to the kind of experiment: in vitro. As to conditions: microsomes, pH 7.4, CYP2C19 % of inhibition.
Data set [2] in a line: Metabolic stability assay in liver microsomes. As to conditions: 30 min. The format is in vitro ADME. The method, then:
In the in vitro metabolic stability study, the stability of compound 29 was evaluated using liver microsomes derived from both mouse and human sources. The primary objectives of this study were to determine the metabolic clearance rate of compound 29 over a defined time period, enabling an assessment of its intrinsic clearance. Microsomal incubations were performed, and the percentage of intact compound remaining was quantified at specific time points. […] The remaining substrate was quantified using the Nexera XR system (Shimadzu, Japan) and TSQ Vantage mass spectrometer (Thermo, Waltham, MA, USA). […] Metabolites were analyzed using the Multiple Reaction Monitoring (MRM) quantification mode in the Xcalibur software (version 4.4). The experiment was performed in duplicate with variability within 15%. Results were calculated as % remaining by comparing the test compound quantified after a 30 min reaction to the initial value at 0 min.

In data set [3] the test system is panel of 47 drug target molecules. As to the kind of experiment: Screening against a panel of pain-related drug targets at 10 μM. The data set is classed as binding. As to the method:
To elucidate the mechanism of action of compound 29 in producing analgesic effects, its inhibitory effects were systematically evaluated through a screening process. The compound was tested at a concentration of 10 μM against a diverse panel of 47 drug target molecules that are closely associated with pain modulation pathways.
The screening of pain-related receptors for the mechanism of action study of compound 29 was conducted by outsourcing the experiment to Eurofins (https://www.eurofins.com, accessed on 30 July 2024). Methods employed in this study have been adapted from the scientific literature to maximize reliability and reproducibility. Reference standards were run as an integral part of each assay to ensure the validity of the results obtained. […] Where presented, IC50 values were determined by a non-linear, least squares regression analysis using MathIQTM (ID Business Solutions Ltd., Woking, Surrey, UK). Where inhibition constants (Ki) are presented, the Ki values were calculated using the equation of Cheng and Prusoff using the observed IC50 of the tested compound, the concentration of radioligand (*) employed in the assay, and the historical values for the KD of the ligand (obtained experimentally at Eurofins Panlabs, Inc.). Where presented, the Hill coefficient (nH), defining the slope of the competitive binding curve, was calculated using MathIQTM.

T1 sequence (P31645 whole entry): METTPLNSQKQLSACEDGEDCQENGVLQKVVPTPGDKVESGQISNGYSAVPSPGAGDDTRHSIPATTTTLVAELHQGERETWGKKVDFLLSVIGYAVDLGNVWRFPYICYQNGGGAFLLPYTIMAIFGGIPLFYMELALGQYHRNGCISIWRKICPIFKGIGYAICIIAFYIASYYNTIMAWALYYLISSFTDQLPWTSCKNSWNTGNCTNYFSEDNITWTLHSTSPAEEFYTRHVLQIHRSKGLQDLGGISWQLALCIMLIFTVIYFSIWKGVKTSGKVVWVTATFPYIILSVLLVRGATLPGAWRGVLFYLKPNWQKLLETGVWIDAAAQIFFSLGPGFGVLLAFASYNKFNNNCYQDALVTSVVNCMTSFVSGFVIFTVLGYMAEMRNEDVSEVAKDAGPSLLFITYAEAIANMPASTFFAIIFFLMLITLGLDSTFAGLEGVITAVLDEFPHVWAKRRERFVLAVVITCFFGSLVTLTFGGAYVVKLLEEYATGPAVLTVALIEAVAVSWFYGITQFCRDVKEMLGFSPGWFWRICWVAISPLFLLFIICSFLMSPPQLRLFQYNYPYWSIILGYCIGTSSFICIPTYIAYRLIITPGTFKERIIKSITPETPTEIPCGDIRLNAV
T2 sequence (P14416 whole entry): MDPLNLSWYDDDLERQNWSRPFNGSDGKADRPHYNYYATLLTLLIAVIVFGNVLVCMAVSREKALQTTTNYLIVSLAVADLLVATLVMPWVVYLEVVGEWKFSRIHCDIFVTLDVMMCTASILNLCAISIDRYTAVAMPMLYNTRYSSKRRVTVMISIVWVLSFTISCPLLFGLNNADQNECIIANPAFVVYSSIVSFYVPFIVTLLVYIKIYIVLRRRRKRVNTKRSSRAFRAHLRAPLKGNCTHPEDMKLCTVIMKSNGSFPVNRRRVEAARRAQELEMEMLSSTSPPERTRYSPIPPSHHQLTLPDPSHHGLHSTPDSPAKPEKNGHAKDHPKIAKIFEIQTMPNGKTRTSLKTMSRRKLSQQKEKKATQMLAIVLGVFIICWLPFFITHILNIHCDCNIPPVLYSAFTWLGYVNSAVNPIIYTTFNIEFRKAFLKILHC
CYP2C19, sequence (P33261 whole entry): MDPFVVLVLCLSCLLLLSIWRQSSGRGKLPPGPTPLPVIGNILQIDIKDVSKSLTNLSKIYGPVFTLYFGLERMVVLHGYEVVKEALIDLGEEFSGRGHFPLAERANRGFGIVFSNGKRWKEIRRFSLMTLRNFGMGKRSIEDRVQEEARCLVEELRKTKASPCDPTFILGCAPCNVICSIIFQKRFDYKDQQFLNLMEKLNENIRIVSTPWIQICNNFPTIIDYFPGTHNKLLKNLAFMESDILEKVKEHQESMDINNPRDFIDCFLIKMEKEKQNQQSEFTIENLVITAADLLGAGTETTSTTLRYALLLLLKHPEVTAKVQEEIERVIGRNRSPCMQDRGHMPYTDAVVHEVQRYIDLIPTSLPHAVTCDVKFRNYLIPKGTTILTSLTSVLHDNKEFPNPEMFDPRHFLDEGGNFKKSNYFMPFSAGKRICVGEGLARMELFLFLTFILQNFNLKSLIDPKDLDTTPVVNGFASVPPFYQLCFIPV
CYP3A4, sequence (P08684 whole entry): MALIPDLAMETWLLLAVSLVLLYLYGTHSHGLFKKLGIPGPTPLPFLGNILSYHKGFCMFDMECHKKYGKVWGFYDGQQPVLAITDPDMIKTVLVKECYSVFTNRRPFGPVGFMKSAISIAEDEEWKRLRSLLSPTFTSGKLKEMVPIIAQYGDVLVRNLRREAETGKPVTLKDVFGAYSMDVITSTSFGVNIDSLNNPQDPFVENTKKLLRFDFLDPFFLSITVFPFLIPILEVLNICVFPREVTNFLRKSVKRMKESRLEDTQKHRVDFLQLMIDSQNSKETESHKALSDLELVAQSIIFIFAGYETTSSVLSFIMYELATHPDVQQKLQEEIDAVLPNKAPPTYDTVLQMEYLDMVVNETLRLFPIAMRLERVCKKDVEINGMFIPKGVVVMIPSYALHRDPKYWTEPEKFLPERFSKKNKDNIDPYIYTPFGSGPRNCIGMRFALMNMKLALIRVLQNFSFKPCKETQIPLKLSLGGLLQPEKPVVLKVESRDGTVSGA

Consider `N#Cc1ccc2[nH]cc(C(=O)NCCN3CCN(c4ccc5ccccc5n4)CC3)c2c1` [Compound 29, 5-Cyano-N-(2-(4-(quinolin-2-yl)piperazin-1-yl)ethyl)-1H-indole-3-carboxamide], for which, in the data set “Cytotoxicity assay (MTT)”, the viability at 18 h, 10 µM is above 100%. For the same compound, the figures for the “nH (Hill coefficient)” value (in data set [1] (SERT); on Dopamine D2L (Dopamine D2L)) were 0.84 and 0.86, respectively. For the same compound, the Ki in data set [1] (SERT, Cheng and Prusoff) was 130 nM; on Dopamine D2L (Dopamine D2L, Cheng and Prusoff), 1850 nM. Besides, the IC50 in data set [1] (SERT, human recombinant HEK-293 cells) came to 780 nM; on Dopamine D2L (Dopamine D2L, human recombinant CHO cells) it was 5540 nM. Moreover, the “times more potent at SERT compared to fluoxetine” value in data set [1] (ratio of Ki values) is listed as 13. Besides, the “times the activity of reference compound spiperone” value on Dopamine D2L (ratio of Ki values) is 0.02. Also, the results for the inhibition at 15 min, 10 µM at CYP3A4 and at CYP2C19 were 78% and below 50%, respectively. The amount remaining at 0.5 h, 1 µM in data set [2] (pH 7.4, human liver microsomes) was determined as 55.6%; in data set [2] (pH 7.4, mouse liver microsomes), 51.2%. Moreover, the “number of targets with more than 50% inhibition” value in data set [3] stood at 16.
